Measured values as given in patent US20110172147A1, “NEUROPEPTIDE-2 RECEPTOR (Y-2R) AGONISTS” (priority 2009, published 2011).
Like-named read-outs stand apart in the source and are kept apart here.

Key:
Assay type in all cases: cell-based
Y4R = Y4R (Homo sapiens, UniProt P50391); assay: CaFlux Assay (FLIPR), Y4R
hNPY2R [1] = target: T1, hNPY2R (Homo sapiens, UniProt P49146); assay: CaFlux Assay (FLIPR), Y2R; design: expressed in transfected cells; host or cells: HEK-293 stably transfected with G protein chimera Gαqi9
T1 sequence (P49146 1-381): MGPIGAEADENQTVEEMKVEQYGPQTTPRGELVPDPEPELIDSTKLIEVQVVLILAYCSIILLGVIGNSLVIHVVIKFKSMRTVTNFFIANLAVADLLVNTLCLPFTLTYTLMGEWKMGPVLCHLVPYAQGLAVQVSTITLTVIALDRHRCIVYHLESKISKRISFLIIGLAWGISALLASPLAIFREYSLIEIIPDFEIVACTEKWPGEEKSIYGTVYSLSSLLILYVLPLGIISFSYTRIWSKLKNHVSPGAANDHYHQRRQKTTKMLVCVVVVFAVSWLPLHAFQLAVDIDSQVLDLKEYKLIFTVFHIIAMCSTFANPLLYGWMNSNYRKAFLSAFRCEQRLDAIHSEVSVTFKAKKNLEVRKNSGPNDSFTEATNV
Method in brief: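 Read-out was the peak increase in Calcium-3 fluorescence on FLIPR, monitored 100 s after compound addition, with each well's pre-stimulation reading as zero and data given as % of the positive control's maximal response. Cells were HEK-293 stably carrying Gαqi9 plus receptor.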

hNPY2R [2] = target: T1, hNPY2R; assay: cAMP Agonist Assay, HEK293/hNPY2R; design: expressed in transfected cells; host or cells: HEK293/hNPY2R (G418 selection)
Method in brief: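 Intracellular cAMP quantified by luminescent competitive ELISA after a 30 min room-temperature treatment of overnight-plated HEK293/hNPY2R cells with compound in medium containing 5 μM forskolin, 0.5 mM IBMX and 1.1% DMSO; four replicates per concentration.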

[3] = FLIPR; read-out: Y4R EC50 (nM) FLIPR
[4] = CaFlux (FLIPR), HEK-293 cells with Gαqi9 and human NPY2 receptor; read-out: Y2R EC50 (nM) FLIPR
[5] = HEK293/hNPY2R cells, Forskolin 5 μM; read-out: Y2R EC50 (nM) cAMP

Chain of Y4R (P50391 whole entry): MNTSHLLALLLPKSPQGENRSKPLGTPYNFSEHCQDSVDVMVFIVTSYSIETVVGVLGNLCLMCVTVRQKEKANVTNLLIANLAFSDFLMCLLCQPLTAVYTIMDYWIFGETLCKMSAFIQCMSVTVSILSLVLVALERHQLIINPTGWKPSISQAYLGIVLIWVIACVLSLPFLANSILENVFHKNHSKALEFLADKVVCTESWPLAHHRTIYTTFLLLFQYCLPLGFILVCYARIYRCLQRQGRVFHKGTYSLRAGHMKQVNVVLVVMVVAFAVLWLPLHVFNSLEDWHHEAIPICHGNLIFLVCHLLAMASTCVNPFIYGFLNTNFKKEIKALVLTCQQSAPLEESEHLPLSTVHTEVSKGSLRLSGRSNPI

Question: Which results are given for CC[C@H](C)[C@H](NC(C)=O)C(=O)N[C@@H](CCCCNC(=O)CCOCCOCCOCCOCCOCCOCCOCCOCCOCCOCCOCCOCCOCCOCCOCCOCCOCCOCCOCCOCCOCCOCCOCCOC)C(=O)N1CCN(c2ccc3ncn(CC(=O)N[C@@H](CCCNC(=N)N)C(=O)N[C@@H](Cc4c[nH]cn4)C(=O)N[C@@H](Cc4ccc(O)cc4)C(=O)N[C@@H](CC(C)C)C(=O)N[C@@H](CC(N)=O)C(=O)N[C@@H](Cc4c[nH]c5ccccc45)C(=O)N[C@H](C(=O)N[C@H](C(=O)N[C@@H](CCCNC(=N)N)C(=O)N[C@@H](CCC(N)=O)C(=O)N(C)[C@@H](CCCNC(=N)N)C(=O)N[C@@H](Cc4ccc(O)cc4)C(N)=O)[C@@H](C)O)C(C)C)c(=O)c3c2)CC1 [Example 21]?
Answer: EC50 (Y4R; [3]): > 6000 nM; EC50 (hNPY2R [1]; [4]): 0.139 nM; EC50 (hNPY2R [2]; [5]): 1.29 nM

Question: With CCCCCCCCCCCCCCCCCCCC(=O)N[C@@H](CCS(=O)(=O)O)C(=O)N[C@@H](CCS(=O)(=O)O)C(=O)NCCCC[C@H](NC(=O)[C@@H](NC(=O)CCOCCOCCOCCOCCOCCOCCOCCOCCOCCOCCOCCOCCOCCOCCOCCOCCOCCOCCOCCOCCOCCOCCOCCOC)[C@@H](C)CC)C(=O)N1CCN(c2ccc3ncn(CC(=O)N[C@@H](CCCNC(=N)N)C(=O)NC(Cc4c[nH]cn4)C(=O)N[C@@H](Cc4ccc(O)cc4)C(=O)NC(CC(C)C)C(=O)N[C@@H](CC(N)=O)C(=O)NC(Cc4c[nH]c5ccccc45)C(=O)N[C@H](C(=O)N[C@H](C(=O)N[C@@H](CCCNC(=N)N)C(=O)NC(CCC(N)=O)C(=O)N(C)[C@@H](CCCNC(=N)N)C(=O)NC(Cc4ccc(O)cc4)C(N)=O)[C@@H](C)O)C(C)C)c(=O)c3c2)CC1 (stereo partly drawn) [Example 27] as the compound, how does the EC50 (Y4R; [3]) read?
Answer: The EC50 was greater than 6000 nM.

Question: What about the EC50 (hNPY2R [1]; [4]) of the same compound?
Answer: Its EC50 is 9.6 nM.

Question: What about the EC50 (hNPY2R [2]; [5]) of the same compound?
Answer: The EC50 was 2.3 nM.

Question: CCCCCCCCCCCCCCCCCCCC(=O)N[C@@H](CCS(=O)(=O)O)C(=O)N[C@@H](CCS(=O)(=O)O)C(=O)NCCCC[C@H](NC(=O)[C@@H](NC(=O)CCOCCOCCOCCOCCOCCOCCOCCOCCOCCOCCOCCOCCOCCOCCOCCOCCOCCOCCOCCOCCOCCOCCOCCOC)[C@@H](C)CC)C(=O)N1CCN(c2ccc3ncn(CC(=O)N[C@@H](CCCNC(N)=O)C(=O)NC(Cc4c[nH]cn4)C(=O)N[C@@H](Cc4ccc(O)cc4)C(=O)NC(CC(C)C)C(=O)N[C@@H](CC(N)=O)C(=O)NC(Cc4c[nH]c5ccccc45)C(=O)N[C@H](C(=O)N[C@H](C(=O)N[C@@H](CCCNC(=N)N)C(=O)NC(CCC(N)=O)C(=O)N(C)[C@@H](CCCNC(=N)N)C(=O)NC(Cc4ccc(O)cc4)C(N)=O)[C@@H](C)O)C(C)C)c(=O)c3c2)CC1 (stereo partly drawn) [Example 28] was tested. Which EC50 (Y4R; [3]) did it give?
Answer: Its EC50 is greater than 6000 nM.

Question: And the EC50 (hNPY2R [1]; [4])?
Answer: Its EC50 is 11.1 nM.

Question: What about the EC50 (hNPY2R [2]; [5]) of the same compound?
Answer: The EC50 was 1.8 nM.

Question: How did the EC50 (Y4R; [3]) turn out when CCCCCCCCCCCCCCCC(=O)N[C@@H](CCS(=O)(=O)O)C(=O)N[C@@H](CCS(=O)(=O)O)C(=O)NCCCC[C@H](NC(=O)[C@@H](NC(=O)CCOCCOCCOCCOCCOCCOCCOCCOCCOCCOCCOCCOCCOCCOCCOCCOCCOCCOCCOCCOCCOCCOCCOCCOC)[C@@H](C)CC)C(=O)N1CCN(c2ccc3ncn(CC(=O)N[C@@H](CCCNC(=N)N)C(=O)NC(Cc4c[nH]cn4)C(=O)N[C@@H](Cc4ccc(O)cc4)C(=O)NC(CC(C)C)C(=O)N[C@@H](CC(N)=O)C(=O)NC(Cc4c[nH]c5ccccc45)C(=O)N[C@H](C(=O)N[C@H](C(=O)N[C@@H](CCCNC(=N)N)C(=O)NC(CCC(N)=O)C(=O)N(C)[C@@H](CCCNC(=N)N)C(=O)NC(Cc4ccc(O)cc4)C(N)=O)[C@@H](C)O)C(C)C)c(=O)c3c2)CC1 (stereo partly drawn) [Example 29] was run?
Answer: Its EC50 is greater than 6000 nM.

Question: And the EC50 (hNPY2R [1]; [4])?
Answer: Its EC50 is 0.156 nM.

Question: And the EC50 (hNPY2R [2]; [5])?
Answer: Its EC50 is 0.14 nM.

Question: Which results are given for CCCCCCCCCCCCCCCCCCCC(=O)NCCCCCC(=O)N[C@H](C(=O)N[C@@H](CCCCNC(=O)CCOCCOCCOCCOCCOCCOCCOCCOCCOCCOCCOCCOCCOCCOCCOCCOCCOCCOCCOCCOCCOCCOCCOCCOC)C(=O)N1CCN(c2ccc3ncn(CC(=O)N[C@@H](CCCNC(=N)N)C(=O)N[C@@H](Cc4c[nH]cn4)C(=O)N[C@@H](Cc4ccc(O)cc4)C(=O)N[C@@H](CC(C)C)C(=O)N[C@@H](CC(N)=O)C(=O)N[C@@H](Cc4c[nH]c5ccccc45)C(=O)N[C@H](C(=O)N[C@H](C(=O)N[C@@H](CCCNC(=N)N)C(=O)N[C@@H](CCC(N)=O)C(=O)N(C)[C@@H](CCCNC(=N)N)C(=O)N[C@@H](Cc4ccc(O)cc4)C(N)=O)[C@@H](C)O)C(C)C)c(=O)c3c2)CC1)[C@@H](C)CC [Example 35]?
Answer: EC50 (Y4R; [3]): > 6000 nM; EC50 (hNPY2R [1]; [4]): 0.097 nM; EC50 (hNPY2R [2]; [5]): 0.17 nM

Question: How did the EC50 (Y4R; read-out: Y4R EC50 (nM) FLIPR; FLIPR) turn out when CC[C@H](C)[C@H](NC(=O)[C@H](CCC(=O)O)NC(=O)[C@H](CCC(=O)O)NC(=O)CCCCCCCCCCCCCCC(=O)O)C(=O)N[C@@H](CCCCNC(=O)CCOCCOCCOCCOCCOCCOCCOCCOCCOCCOCCOCCOCCOCCOCCOCCOC)C(=O)N1CCN(c2ccc3ncn(CC(=O)N[C@@H](CCCNC(=N)N)C(=O)N[C@@H](Cc4c[nH]cn4)C(=O)N[C@@H](Cc4ccc(O)cc4)C(=O)N[C@@H](CC(C)C)C(=O)N[C@@H](CC(N)=O)C(=O)N[C@@H](Cc4c[nH]c5ccccc45)C(=O)N[C@H](C(=O)N[C@H](C(=O)N[C@@H](CCCNC(=N)N)C(=O)N[C@@H](CCC(N)=O)C(=O)N(C)[C@@H](CCCNC(=N)N)C(=O)N[C@@H](Cc4ccc(O)cc4)C(N)=O)[C@@H](C)O)C(C)C)c(=O)c3c2)CC1 [Example 54] was run?
Answer: The EC50 was greater than 6000 nM.

Question: What about the EC50 (hNPY2R [1]; read-out: Y2R EC50 (nM) FLIPR; CaFlux (FLIPR), HEK-293 cells with Gαqi9 and human NPY2 receptor) of the same compound?
Answer: Its EC50 is 292 nM.

Question: What about the EC50 (hNPY2R [2]; read-out: Y2R EC50 (nM) cAMP; HEK293/hNPY2R cells, Forskolin 5 μM) of the same compound?
Answer: Its EC50 is 36 nM.
